ChEMBL document CHEMBL4261520, “Advances in indoleamine 2,3-dioxygenase 1 medicinal chemistry” (Medchemcomm, 2017)

System: Homo sapiens
Assay: In vivo inhibition of IDO1 in malignant glioma patient assessed as reduction in intratumoral kynurenine levels relative to control
Assay type: functional

Compound: O=C1CC(c2c[nH]c3ccc(F)cc23)C(=O)N1 (stereo unspecified) [PF-06840003]
- inhibition (INH): >80%
